According to patent US12613249B2 (THE ROYAL INSTITUTION FOR THE ADVANCEMENT OF LEARNING / …, priority 2019, dated 2026):
Square brackets hold non-standard residues; d marks the D form. Peptide text beside a SMILES is read from it.

Test: Brain homogenate concentrations after single oral dose, LC-MS
Format: in vivo, C57BL/6 mice
Settings: for maximum brain concentration / peak brain concentration: brain homogenate; for maximum brain concentration / time of maximum brain concentration: female mice
Experimental: An internal standard (IS) for the reliable quantification of D-AIP in biological matrices was prepared by dimethylation to produce an analog of D-AIP by using a protocol previously described (Boersema et al., 2009, Nat Protoc, 4:484-494). Standard solutions (1 mg/mL) each of D-AIP and IS were prepared in deionized water and 100% methanol respectively. 100 μL of IS working solution was prepared at 50 ng/ml added to 25 μL of the sample (plasma or brain homogenate). The sample was vortexed for approximately 5 s and let stand for 10 min, then centrifuged at 16,000 g for 10 min. The supernatant was transferred to a 13×100 polypropylene tube and evaporated to dryness at 50° C. under gentle stream of nitrogen. The dry extract was re-suspended with 40 μL of 0.1% (v/v) formic acid (Sigma Aldrich, St-Louis, MO, USA) in deionized water and transferred to an injection vial for analysis.
Thermo Scientific TSQ Quantiva Triple Quadrupole mass spectrometer (San Jose, CA, USA) was interfaced with the Thermo Scientific UltiMate 3000 XRS UHPLC system (San Jose, CA, USA) using a pneumatic assisted heated electrospray ion source. Data acquisition and analysis were performed using Xcalibur 4.0 (San Jose, CA, USA).
[…]radient elution was used with a Thermo Scientific BioBasic-8 column (100×2 mm I.D. 5 μm) operating at 40° C. The initial mobile phase condition consisted of 0.1% formic acid in acetonitrile and 0.1% formic acid in deionized water at a ratio of 5:95, respectively and this ration was maintained for 1 min. A linear gradient was applied from 1 to 5 min up to a ratio of 50:50 and maintained for 1 min. At 6.1 min, the mobile phase composition was reverted to 5:95 and the column was allowed to equilibrate for 7.9 min for a total run time of 14 min. The D-AIP and IS eluted at 4.7 and 4.8 min respectively at a fixed flow rate of 0.2 mL/min. The eluent was diverted to waste for the first minute and last six minutes. Extracted sample (5 μL) was injected and the acquisition time was set to 14 min.
The mass spectrometer was interfaced with ultra-high-performance liquid chromatography (UHPLC) system using a pneumatic assisted heated electrospray ion source with detection in positive ion mode using […] (MRM). For proper optimization of the mass spectrometer, standard solutions of D-AIP and IS were infused. The obtained source parameters were 50 and 15 arbitrary units respectively while using nitrogen for the sheath and auxiliary gases. The HESI electrode was set to 3500 V, capillary and vaporizer temperature were both set to 300° C. respectively. The MS/MS parameters were optimized using the doubly charged species. Argon was used as collision gas at a pressure of 2.5 mTorr. The precursor-ion reaction for D-AIP were set to 471.4→[591.8+648.3] and for the IS the MRM transitions were set to 499.4→[425.8+468.8+476.8]
Standard solution of D-AIP (1 mg/mL) was diluted in various volumes of deionized water to obtain series of standard working solutions. Calibration standards were prepared by fortifying the mouse plasma and mouse brain homogenate with the standard working solutions at 10% (v/v) to enable analytical concentration range of 1.00 to 1000 ng/ml. The method is linear using a linear regression weighted 1/x analysis, a value of R^2≥0.9979 was obtained for plasma and R^2≥0.9991 for brain homogenate. Samples were injected in duplicate with the calculated in each case and concentrations were processed from the equation obtained from the respective calibration curves using Xcalibur 4.0 software.
Animal care and all animal experiments were undertaken with federal guidelines and approval of the Institutional Animal Ethical Committee of McGill University, Montreal, Canada (Protocol Application Number: 2017-7880) and adequate measures were taken to minimize pain or discomfort. […]

C[C@H](O)[C@@H](NC(=O)CNC(=O)[C@H](N)CCCNC(=N)N)C(=O)N[C@H](Cc1ccccc1)C(=O)N[C@H](CCC(=O)O)C(=O)NCC(=O)N[C@H](CCCCN)C(=O)N[C@H](Cc1ccccc1)C(=O)O [D-AIP] (H-[dR]G[dT][dF][dE]G[dK][dF]-OH; N-terminus and C-terminus assumed)
tissue level at time at 4 h (C57BL/6, mouse, brain, male mice, highest dose (100 mg/kg oral), after 4 h, read-out: brain concentration during elimination): 38.5 ng/g
maximum brain concentration (single oral dose 10 mg/kg, at 4 h): 28.91 ng/g
maximum brain concentration (single oral dose 30 mg/kg, at 2 h): 136.29 ng/g
maximum brain concentration (single oral dose 100 mg/kg, at 2 h): 707.95 ng/g
peak brain concentration (male mice, single oral dose 10 mg/kg, at 4 h): 133.15 ng/g
peak brain concentration (male mice, single oral dose 30 mg/kg, at 2 h): 262.00 ng/g
peak brain concentration (male mice, single oral dose 100 mg/kg, at 0.5 h): 509.24 ng/g
crossing of the BBB (female and male mice, single oral doses 10, 30, 100 mg/kg): crossed the BBB and reached the brain
time of maximum brain concentration (single oral dose 10 mg/kg): 4 h
time of maximum brain concentration (single oral dose 30 mg/kg): 2 h
time of maximum brain concentration (single oral dose 100 mg/kg): 2 h
time of peak brain concentration (male mice, single oral dose 10 mg/kg): 4 h
time of peak brain concentration (male mice, single oral dose 30 mg/kg): 2 h
time of peak brain concentration (male mice, single oral dose 100 mg/kg): 0.5 h
